Read-outs that look alike come from different tables or passages of the source.
B1: Wnt3a purified protein: Purified Wnt3a protein, Wnt signaling pathway agonist (stemimmune LLC) (protein, UniProt P56704 19-352, looked up)
Protein Wnt-3a: SYPIWWSLAVGPQYSSLGSQPILCASIPGLVPKQLRFCRNYVEIMPSVAEGIKIGIQECQHQFRGRRWNCTTVHDSLAIFGPVLDKATRESAFVHAIASAGVAFAVTRSCAEGTAAICGCSSRHQGSPGKGWKWGGCSEDIEFGGMVSREFADARENRPDARSAMNRHNNEAGRQAIASHMHLKCKCHGLSGSCEVKTCWWSQPDFRAIGDFLKDKYDSASEMVVEKHRESRGWVETLRPRYTYFKVPTERDLVYYEASPNFCEPNPETGSFGTRDRTCNVSSHGIDGCDLLCCGRGHNARAERRREKCRCVFHWCCYVSCQECTRVYDVHTCK

Legend:
ProliHHs [1] = assay: In vitro hepatic maturation induction of ProliHHs (3D culture, 10 days; morphology, gene expression, CYP2B6 and urea metabolism); conditions: components added to HM to give HIM
Description: (§2) The fully grown proliferating human hepatocytes are trypsinized and re-suspended in the hepatocyte medium, and seeded in a non-attached 24-well plate (Elplasia, Japan) at 5*10^5 cells/well. One day later, the medium was replaced with the hepatocyte induction medium, and the cells will slowly aggregate into cell spheres. The medium was changed every 2 days, and the induced cells were collected 10 days after the induction.
(§3) • 1) Extract cellular RNA by Trizol (Invitrogen) or RNeasy FFPE Kit (Qiagen). • 2) Obtain cDNA by M-MLV reverse transcriptase (Promega) kit, using 1 μg Trizol-extracted RNA, or 1 μg or all (according to the particular amount) of the RNA extracted by RNeasy FFPE Kit. • 3) Perform real-time quantitative PCR using SYBR Premix Ex Taq kit (TaKaRa), and detect expression of genes with ABI StepOnePlus real-time PCR system (Applied Biosystems). All Q-PCR data were performed with at least 2 repeats.
(§4) For detecting urea secretion ability of the cultured cells, supernatants of cell culture were collected after 24-hour culture and analyzed by urea assay kit (Abnova) according to its protocol.
(§5) For measurement of CYP2B6 metabolism activity of the proliferating human hepatocytes, cells subjected 10 days of hepatic induction and freshly resuscitated human hepatocytes were incubated respectively in a medium containing 100 um bupropion. Supernatants of cell culture were present to RILD Liver Company to detect the production of CYP2B6 metabolites using mass spectrometry. Standard curves were drawn using commercially purchased standards.

human hepatocytes = assay: Expansion of human hepatocytes in HM medium with, without or with replaced Wnt signaling pathway agonist (6 days); assay type: cell-based; conditions: 50 ng/ml Wnt3a purified protein or CHIR 0.1 μM
Description: (§1) A. Cell photographs of human hepatocytes cultured for 6 days in: HM medium containing Wnt3a conditioned medium, HM medium without Wnt3a conditioned medium, HM medium containing Wnt3a purified protein instead of Wnt3a conditioned medium, and HM medium containing CHIR instead of Wnt3a conditioned medium.
as §1, with “B. Fold of expansion” for “A. Cell photographs”
Cryopreserved human liver cells were purchased from Celsis In Vitro Technologies (Baltimore, MD, U.S.). The cryopreserved human hepatocytes were resuscitated in DMEM medium containing 10% serum, and seeded in a collagen-I-coated plate at 2*10^4 cells/cm^2. The culture plate was incubated at 37° C. in a 5% CO2, 5% O2 incubator. The medium was changed to the hepatocyte medium one day after seeding and every 3 days thereafter. After 6 days of culture, the fully grown cells were trypsinized and seeded in a collagen-I-coated plate at 3*10^4 cells/cm^2. The culture plate was incubated at 37° C. in a 5% CO2 and 5% O2 incubator.
The HM medium contains a variety of growth factors and small molecule compounds.

ProliHHs [2] = system: ProliHHs
Description: as §2, §3, §4, §5

| Molecule | role in hepatic maturation medium (metabolic maturation, inhibition of progenitor gene expression) (ProliHHs [1]) | cell morphology and expansion fold compared with Wnt3a conditioned medium (human hepatocytes) | expansion of human hepatocytes when replacing Wnt3a conditioned medium in HM medium (human hepatocytes) | role in hepatic maturation medium (metabolic maturation, inhibition of progenitor gene expression) (ProliHHs [2]) |
| --- | --- | --- | --- | --- |
| C=C[C@@]1(C)CC(=O)[C@]2(O)[C@@]3(C)[C@@H](O)CCC(C)(C)[C@@H]3[C@H](O)[C@H](OC(C)=O)[C@@]2(C)O1 [Forskolin] | key factors | – | – | – |
| Cc1c[nH]c(-c2cnc(NCCNc3ccc(C#N)cn3)nc2-c2ccc(Cl)cc2Cl)n1 [CHIR, CHIR99021] | – | similar | could be expanded | – |
| C[C@@H]1C[C@H]2[C@@H]3CCC4=CC(=O)C=C[C@]4(C)[C@@]3(F)[C@@H](O)C[C@]2(C)[C@@]1(O)C(=O)CO [DEX, Dexamethasone] | – | – | – | key factors |
| Oncostatin M [OSM] | – | – | – | key factors |
| B1 | – | similar | could be expanded | – |

— US12723235B2, “Method for expanding hepatocyte in vitro and application” (Center for Excellence in Molecular Cell Science, Chinese …, priority 2018, dated 2026)
